Measurements taken from the CheMixHub ionic liquid set.
± gives the uncertainty stated by the source.

Experiment: xn = mol fraction of the nth substance listed
Conditions: 100 kPa

Compound: CC1CCC(=O)O1 (stereo not drawn) + CCCC[n+]1ccn(C)c1.O=S(=O)([N-]S(=O)(=O)C(F)(F)F)C(F)(F)F
- electrical conductivity (293.15 K, frequency 0.01 MHz, x2 = 0.0505): 0.666 ± 0.029 S/m
- electrical conductivity (293.15 K, frequency 0.01 MHz, x2 = 0.1001): 1.01 ± 0.041 S/m
- electrical conductivity (293.15 K, frequency 0.01 MHz, x2 = 0.1492): 1.11 ± 0.044 S/m
- electrical conductivity (293.15 K, frequency 0.01 MHz, x2 = 0.1998): 1.1 ± 0.044 S/m
- electrical conductivity (293.15 K, frequency 0.01 MHz, x2 = 0.3008): 0.993 ± 0.04 S/m
- electrical conductivity (293.15 K, frequency 0.01 MHz, x2 = 0.4031): 0.816 ± 0.033 S/m
- electrical conductivity (293.15 K, frequency 0.01 MHz, x2 = 0.5048): 0.677 ± 0.027 S/m
- electrical conductivity (293.15 K, frequency 0.01 MHz, x2 = 0.6031): 0.561 ± 0.023 S/m
- electrical conductivity (293.15 K, frequency 0.01 MHz, x2 = 0.6973): 0.476 ± 0.019 S/m
- electrical conductivity (293.15 K, frequency 0.01 MHz, x2 = 0.7994): 0.394 ± 0.016 S/m
- electrical conductivity (293.15 K, frequency 0.01 MHz, x2 = 0.8711): 0.364 ± 0.015 S/m
- electrical conductivity (298.15 K, frequency 0.01 MHz, x2 = 0.0505): 0.719 ± 0.031 S/m
- electrical conductivity (298.15 K, frequency 0.01 MHz, x2 = 0.1001): 1.11 ± 0.045 S/m
- electrical conductivity (298.15 K, frequency 0.01 MHz, x2 = 0.1492): 1.21 ± 0.049 S/m
- electrical conductivity (298.15 K, frequency 0.01 MHz, x2 = 0.1998): 1.21 ± 0.049 S/m
- electrical conductivity (298.15 K, frequency 0.01 MHz, x2 = 0.3008): 1.1 ± 0.044 S/m
- electrical conductivity (298.15 K, frequency 0.01 MHz, x2 = 0.4031): 0.913 ± 0.037 S/m
- electrical conductivity (298.15 K, frequency 0.01 MHz, x2 = 0.5048): 0.762 ± 0.031 S/m
- electrical conductivity (298.15 K, frequency 0.01 MHz, x2 = 0.6031): 0.636 ± 0.026 S/m
- electrical conductivity (298.15 K, frequency 0.01 MHz, x2 = 0.6973): 0.544 ± 0.022 S/m
- electrical conductivity (298.15 K, frequency 0.01 MHz, x2 = 0.7994): 0.457 ± 0.018 S/m
- electrical conductivity (298.15 K, frequency 0.01 MHz, x2 = 0.8711): 0.425 ± 0.017 S/m
- electrical conductivity (303.15 K, frequency 0.01 MHz, x2 = 0.0505): 0.785 ± 0.034 S/m
- electrical conductivity (303.15 K, frequency 0.01 MHz, x2 = 0.1001): 1.21 ± 0.049 S/m
- electrical conductivity (303.15 K, frequency 0.01 MHz, x2 = 0.1492): 1.32 ± 0.053 S/m
- electrical conductivity (303.15 K, frequency 0.01 MHz, x2 = 0.1998): 1.34 ± 0.054 S/m
- electrical conductivity (303.15 K, frequency 0.01 MHz, x2 = 0.3008): 1.22 ± 0.049 S/m
- electrical conductivity (303.15 K, frequency 0.01 MHz, x2 = 0.4031): 1.02 ± 0.041 S/m
- electrical conductivity (303.15 K, frequency 0.01 MHz, x2 = 0.5048): 0.854 ± 0.034 S/m
- electrical conductivity (303.15 K, frequency 0.01 MHz, x2 = 0.6031): 0.72 ± 0.029 S/m
- electrical conductivity (303.15 K, frequency 0.01 MHz, x2 = 0.6973): 0.623 ± 0.025 S/m
- electrical conductivity (303.15 K, frequency 0.01 MHz, x2 = 0.7994): 0.531 ± 0.021 S/m
- electrical conductivity (303.15 K, frequency 0.01 MHz, x2 = 0.8711): 0.498 ± 0.02 S/m
- electrical conductivity (308.15 K, frequency 0.01 MHz, x2 = 0.0505): 0.849 ± 0.037 S/m
- electrical conductivity (308.15 K, frequency 0.01 MHz, x2 = 0.1001): 1.31 ± 0.053 S/m
- electrical conductivity (308.15 K, frequency 0.01 MHz, x2 = 0.1492): 1.45 ± 0.058 S/m
- electrical conductivity (308.15 K, frequency 0.01 MHz, x2 = 0.1998): 1.48 ± 0.059 S/m
- electrical conductivity (308.15 K, frequency 0.01 MHz, x2 = 0.3008): 1.36 ± 0.055 S/m
- electrical conductivity (308.15 K, frequency 0.01 MHz, x2 = 0.4031): 1.13 ± 0.045 S/m
- electrical conductivity (308.15 K, frequency 0.01 MHz, x2 = 0.5048): 0.96 ± 0.038 S/m
- electrical conductivity (308.15 K, frequency 0.01 MHz, x2 = 0.6031): 0.818 ± 0.033 S/m
- electrical conductivity (308.15 K, frequency 0.01 MHz, x2 = 0.6973): 0.712 ± 0.029 S/m
- electrical conductivity (308.15 K, frequency 0.01 MHz, x2 = 0.7994): 0.612 ± 0.025 S/m
- electrical conductivity (308.15 K, frequency 0.01 MHz, x2 = 0.8711): 0.575 ± 0.023 S/m
- electrical conductivity (313.15 K, frequency 0.01 MHz, x2 = 0.0505): 0.914 ± 0.04 S/m
- electrical conductivity (313.15 K, frequency 0.01 MHz, x2 = 0.1001): 1.42 ± 0.058 S/m
- electrical conductivity (313.15 K, frequency 0.01 MHz, x2 = 0.1492): 1.58 ± 0.063 S/m
- electrical conductivity (313.15 K, frequency 0.01 MHz, x2 = 0.1998): 1.62 ± 0.065 S/m
- electrical conductivity (313.15 K, frequency 0.01 MHz, x2 = 0.3008): 1.5 ± 0.06 S/m
- electrical conductivity (313.15 K, frequency 0.01 MHz, x2 = 0.4031): 1.25 ± 0.05 S/m
- electrical conductivity (313.15 K, frequency 0.01 MHz, x2 = 0.5048): 1.07 ± 0.043 S/m
- electrical conductivity (313.15 K, frequency 0.01 MHz, x2 = 0.6031): 0.918 ± 0.037 S/m
- electrical conductivity (313.15 K, frequency 0.01 MHz, x2 = 0.6973): 0.81 ± 0.032 S/m
- electrical conductivity (313.15 K, frequency 0.01 MHz, x2 = 0.7994): 0.703 ± 0.028 S/m
- electrical conductivity (313.15 K, frequency 0.01 MHz, x2 = 0.8711): 0.663 ± 0.027 S/m
- electrical conductivity (318.15 K, frequency 0.01 MHz, x2 = 0.0505): 0.986 ± 0.043 S/m
- electrical conductivity (318.15 K, frequency 0.01 MHz, x2 = 0.1001): 1.54 ± 0.063 S/m
- electrical conductivity (318.15 K, frequency 0.01 MHz, x2 = 0.1492): 1.73 ± 0.069 S/m
- electrical conductivity (318.15 K, frequency 0.01 MHz, x2 = 0.1998): 1.77 ± 0.071 S/m
- electrical conductivity (318.15 K, frequency 0.01 MHz, x2 = 0.3008): 1.64 ± 0.066 S/m
- electrical conductivity (318.15 K, frequency 0.01 MHz, x2 = 0.4031): 1.38 ± 0.055 S/m
- electrical conductivity (318.15 K, frequency 0.01 MHz, x2 = 0.5048): 1.19 ± 0.048 S/m
- electrical conductivity (318.15 K, frequency 0.01 MHz, x2 = 0.6031): 1.03 ± 0.041 S/m
- electrical conductivity (318.15 K, frequency 0.01 MHz, x2 = 0.6973): 0.918 ± 0.037 S/m
- electrical conductivity (318.15 K, frequency 0.01 MHz, x2 = 0.7994): 0.807 ± 0.032 S/m
- electrical conductivity (318.15 K, frequency 0.01 MHz, x2 = 0.8711): 0.763 ± 0.031 S/m
- electrical conductivity (323.15 K, frequency 0.01 MHz, x2 = 0.0505): 1.05 ± 0.046 S/m
- electrical conductivity (323.15 K, frequency 0.01 MHz, x2 = 0.1001): 1.67 ± 0.068 S/m
- electrical conductivity (323.15 K, frequency 0.01 MHz, x2 = 0.1492): 1.87 ± 0.075 S/m
- electrical conductivity (323.15 K, frequency 0.01 MHz, x2 = 0.1998): 1.92 ± 0.077 S/m
- electrical conductivity (323.15 K, frequency 0.01 MHz, x2 = 0.3008): 1.79 ± 0.072 S/m
- electrical conductivity (323.15 K, frequency 0.01 MHz, x2 = 0.4031): 1.51 ± 0.06 S/m
- electrical conductivity (323.15 K, frequency 0.01 MHz, x2 = 0.5048): 1.31 ± 0.053 S/m
- electrical conductivity (323.15 K, frequency 0.01 MHz, x2 = 0.6031): 1.16 ± 0.046 S/m
- electrical conductivity (323.15 K, frequency 0.01 MHz, x2 = 0.6973): 1.03 ± 0.041 S/m
- electrical conductivity (323.15 K, frequency 0.01 MHz, x2 = 0.7994): 0.919 ± 0.037 S/m
- electrical conductivity (323.15 K, frequency 0.01 MHz, x2 = 0.8711): 0.869 ± 0.035 S/m

Compound: CCn1cc[n+](C)c1.N[C@@H](CO)C(=O)[O-] + O
- electrical conductivity (303.15 K, x1 = 0.9276): 0.0944 ± 0.0034 S/m
- electrical conductivity (308.15 K, x1 = 0.9133): 0.132 ± 0.004 S/m
- electrical conductivity (313.15 K, x1 = 0.9133): 0.169 ± 0.005 S/m
- electrical conductivity (313.15 K, x1 = 0.9276): 0.166 ± 0.005 S/m
- electrical conductivity (318.15 K, x1 = 0.8699): 0.223 ± 0.006 S/m
- electrical conductivity (318.15 K, x1 = 0.884): 0.221 ± 0.006 S/m
- electrical conductivity (323.15 K, x1 = 0.9133): 0.269 ± 0.007 S/m
- electrical conductivity (328.15 K, x1 = 0.884): 0.346 ± 0.009 S/m
- electrical conductivity (333.15 K, x1 = 0.8699): 0.436 ± 0.011 S/m
- electrical conductivity (333.15 K, x1 = 0.884): 0.432 ± 0.011 S/m
- electrical conductivity (338.15 K, x1 = 0.9276): 0.511 ± 0.012 S/m
